Measurements published in patent US8324284B2, “Migrastatin analogs and uses thereof” (Sloan-Kettering Institute for Cancer Research, priority 2003, dated 2012).
Where two headings read alike, the source gives them in different places.

Columns and labels:
[1] = rcm bond, toluene, 0.25 h
[2] = tested on: 4T1 mouse breast tumor cells; test: Chamber cell migration assay with 4T1 tumor cells; type: cell-based; details: for IC50: Boyden chamber, 6-8 h, average of three experiments; for inhibitory activity on 4T1 tumor cell migration, in words: chamber assay
Description: The biological evaluation of the compounds (in terms of their ability to inhibit cell migration) was accomplished in a Boyden chamber cell migration assay. In this assay, mouse breast tumor cells (4T1 cells) or endothelial cells (HUVECs) are seeded on the upper chamber of a transwell insert. Growth factor-containing serum is added to the lower chamber.
Chamber Cell Migration Assay (Tables 4 and 6): Cell migrations were assayed with Boyden chambers [8.0 μm pore size, polyethylene terephthalate membrane, FALCON cell culture insert (Becton-Dickinson)]. 4T1 mouse breast tumor cells or HUVECs were trypsinized and counted. 300 μl of 5−10×10^4 cells in serum-free medium was added to the upper chamber and 500 μl of medium with 10% fetal bovine serum (FBS) was added to the lower chamber. […] Cells on the inside of the transwell inserts were removed with a cotton swab, and cells on the underside of the insert were fixed and stained. Photographs of three random regions were taken and the number of cells was counted to calculate the average number of cells that have transmigrated.

[3] = tested on: KYSE-520 cells; test: Wound healing (scratch) assay; type: cell-based; details: 28 to 30 h, tested 200, 100, 50, 25, 10 μM
Description: The wound healing assay was performed based on the method described by Nakae et al. (Nakae et al., J. Antibiotics (2000), 53, 1130-1136). Briefly, adherent cells were grown in a suitable media to confluence (e.g. KYSE-520 cells in RPMI-1640 with 10% FBS). Cells were starved for 24 h in serum free media. A scratch (ca. 0.5 mm) was applied and the cell layer was washed twice with PBS after removal of the media. Fresh, serum free media with the test compound at the desired concentration was added and the cells were incubated for 28 to 30 h at 37° C., 5% CO2. The scratch size was compared to that observed for cells exposed to 100 μM Migrastatin. Test compounds associated with a scratch size equal to or larger than that observed for cells exposed to 100 μM Migrastatin were deemed to have cell migration inhibitory activity at least equal to Migrastatin.

[4] = tested on: HUVEC; test: Tube formation assay; type: cell-based, human; details: minimal concentration causing definite disturbance of tube network; 16-18 h; tested 200, 100, 50, 25, 10 μM
Description: A protocol was designed based on the instructions from the provider (BD Bioscience, San Jose, Calif.). Briefly, wells of a 48 well culture dish were covert with 150 μL matrigel and the matrigel was gelatinized for 30 min at 37° C. A 80-90% confluent HUVEC (BD Bioscience, San Jose, Calif.) culture was trypsin treated, the detached cells were collected by centrifugation and resuspended in EGM-2 media (BD Bioscience, San Jose, Calif.). Cell concentration was adjusted to 100.000 cells/mL. 400 μL of the cell suspension were filled in the matrigel coated wells, and a solution of the inhibitor was added to the intended final concentration. The plates were incubated at 37° C. with 5% CO2 for 16-18 h. Media was removed, and the matrigel surface was washed twice with 500 μL PBS before cells were labeled with 250 μL […] Calcein AM (Pierce, Rockford, Ill.) in PBS for 30 min at 37° C. After two additional washing steps (500 μL PBS) cells were visualized under an inverted microscope. Fluorescence was excited at 488 nm and recorded at 538 nm. The minimum effect concentration was defined as the minimal inhibitor concentration that caused a definite disturbance of the complexity of the formed tube network.

[5] = tested on: 4T1 tumor lung metastasis; test: 4T1 tumor lung metastasis in syngeneic mice; type: in vivo, mouse; details: for lung metastasis, colonies (6-thioguanine clonogenic assay): mean and standard deviation; for inhibition of lung metastasis: 10 mg/kg i.p. daily Day 7-25
Description: Female BALB/c mice (6-8 week old) were purchased from the Jackson Laboratory (Bar Harbor, Me.). All mice were housed at the Weill Medical College of Cornell University Animal Facilities in accordance with the Principles of Animal Care (NIH publication no. 85-23, revised 1985). 4T1 tumor cells (1×10^5) were injected subcutaneously into the abdominal mammary gland area of mice in 0.1 ml of a single-cell suspension in phosphate buffered saline (PBS) on Day 0. The dosage of tumor implantation was empirically determined to give rise to tumor of ˜10 mm in diameter in untreated wild type mice in 21-23 days. On Day 7, when the tumors averaged in size ˜4-5 mm in diameter, migrastatin analogs or control PBS saline were given every day by intraperitoneal injection at 10 mg/kg or 20 mg/kg per mouse until Day 25. On Day 28, the mice were sacrificed. This regiment of migrastatin analogs was well tolerated with no signs of overt toxicity. Every group included five mice. Primary tumors were measured using electronic calipers on the day when the mice were sacrificed. Tumor size was the square root of the product of two perpendicular diameters. Numbers of metastatic 4T1 cells in lung were determined by the clonogenic assay.^63 In brief, lungs were removed from each mouse on Day 28, finely minced and digested in 5 ml of enzyme cocktail containing 1×PBS and 1 mg/ml collagenase type IV for 2 hours at 37° C. on a platform rocker. After incubation, samples were filtered through 70 uM nylon cell strainers and washed twice with PBS. Resulting cells were suspended and plated serially diluted in 10 cm tissue culture dishes in medium RPMI1640 containing 60 uM thioguanine for clonogenic growth. 6-Thioguanine-resistant tumor cells formed foci after 14 days, at which time they were fixed with methanol and stained with 0.03% methylene blue for counting.
Treatment 4T1 tumor lung metastasis in syngeneic mice with migrastatin analogs (See, FIG. 4). 4T1 tumor cells (10^5) were injected s.c. in the abdominal mammary gland with 0.1 ml of a single-cell suspension. Macroketone or macrolactam at 10 mg/kg or 20 mg/kg was given i.p. on Day 7 when the tumor size was about 5 mm in diameter, and every day until Day 25. On Day 28, the mice were sacrificed. Each group comprised five mice. Lung metastasis was measured by the 6-thiogunine clonogenic assay. The mean and standard deviation are presented. In the control group (daily PBS injection), there were 61300±18900 colonies.

[6] = Metabolic stability in mouse plasma; type: in vitro ADME; details: mouse plasma/PBS, 37° C.
Description: Mouse Plasma Stability Studies (Table 5): HPLC conditions: The sample is injected and separated using an Inertsil ODS3 6u 3×150 mm column with a mobile phase of MeCN and water (50% for migrastatin) at a flow of 0.4 mL/min, monitored at 220 nm at 0.02 AUFS (the retention time for migrastatin is ca. 4 min, the identity of this peak was confirmed by mass spectral analysis). Incubation and sample preparation conditions: A solution (ca. 30 mM) of chemical compound (Table 5) in DMSO is prepared. 2 μL of the solution is added to a mixture containing 200 μL of mouse plasma and 800 μL of PBS. The resulting solution is put into a water bath at 37° C., and 100 μL of sample is withdrawn at 10, 20, 30, 45, and 60 min. The precipitate is removed by centrifugation and 20 μL of the supernatant is injected onto the HPLC.

CO[C@H]1C=CCC/C=C/C(=O)OC/C(C)=C\[C@@H](C)[C@@H]1O[Si](C)(C)C(C)(C)C
ring closure, yield of all isomers ([1]; from C=CCC/C=C/C(=O)OC/C(C)=C\[C@@H](C)[C@H](O[Si](C)(C)C(C)(C)C)[C@H](C=C)OC, Grubbs-II catalyst, 0.664 mM, 110.0 °C): 55%

CO[C@H]1C=CCC/C=C/C(=O)O[C@H]([C@H](C)C(=O)CCCC2CC(=O)NC(=O)C2)/C(C)=C\[C@@H](C)[C@@H]1O[Si](C)(C)C(C)(C)C
ring closure, yield of all isomers ([1]; from C=CCC/C=C/C(=O)O[C@@H](/C(C)=C\[C@@H](C)[C@H](O[Si](C)(C)C(C)(C)C)[C@H](C=C)OC)[C@H](C)C(=O)CCCC1CC(=O)NC(=O)C1, Grubbs-II catalyst, 0.46 mM, 110.0 °C): 69%

CO[C@H]1C=CCCCCC(=O)CC/C(C)=C\[C@@H](C)[C@@H]1O[Si](C)(C)C(C)(C)C
ring closure, yield of all isomers ([1]; from C=CCCCCC(=O)CC/C(C)=C\[C@@H](C)[C@H](O[Si](C)(C)C(C)(C)C)[C@H](C=C)OC, Grubbs-II, 0.508 mM, 111.0 °C): 81%

CO[C@H]1C=CCCCCC(=O)OC/C(C)=C\[C@@H](C)[C@@H]1O[Si](C)(C)C(C)(C)C
ring closure, yield of all isomers ([1]; from C=CCCCCC(=O)OC/C(C)=C\[C@@H](C)[C@H](O[Si](C)(C)C(C)(C)C)[C@H](C=C)OC, Grubbs-II catalyst, 0.498 mM, 110.0 °C): 76%

CO[C@H]1C=CCCCCC(=O)O[C@@H](C(C)C)/C(C)=C\[C@@H](C)[C@@H]1O
ring closure, yield of all isomers ([1]; from C=CCCCCC(=O)O[C@H](/C(C)=C\[C@@H](C)[C@H](O[Si](C)(C)C(C)(C)C)[C@H](C=C)OC)C(C)C, Grubbs-II, 0.53 mM, 111.0 °C, 2 steps): 65%

CO[C@H]1C=CCCCCC(=O)O[C@H]([C@H](C)C(=O)CCCC2CC(=O)NC(=O)C2)/C(C)=C\[C@@H](C)[C@@H]1O[Si](C)(C)C(C)(C)C
ring closure, yield of all isomers ([1]; from C=CCCCCC(=O)O[C@@H](/C(C)=C\[C@@H](C)[C@H](O[Si](C)(C)C(C)(C)C)[C@H](C=C)OC)[C@H](C)C(=O)CCCC1CC(=O)NC(=O)C1, Grubbs-II catalyst, 0.48 mM, 110.0 °C): 79%

COC1C=CCCCCC(=NNC(=O)CCOCCOCCOCCOCCNC(=O)CCCCC2SCC3NC(=O)NC32)CCC(C)=CC(C)C1O (mixture of isomers) [biotinylated macrohydrazone (73), Biotinylated Macrohydrazone]
IC50 [2]: 0.331 µM
inhibitory activity on 4T1 tumor cell migration, in words [2]: inhibitory potency is largely retained

COC1C=CCCCCC(=O)OC(C(C)C(=O)CCCC2CC(=O)NC(=O)C2)C(C)=CC(C)C1O (stereo not shown) [2,3-dihydromigrastatin (41), 2,3-Dihydromigrastatin]
Minimum effect concentration [3]: 25 µM
Minimum effect concentration [4]: 50 µM

COC1C=CCCCCC(=O)OC(C(C)C)C(C)=CC(C)C1O [(R)-isopropyl macrolactone (68), (R)-Isopropyl Macrolactone]
IC50 [2]: 146 µM
inhibitory activity on 4T1 tumor cell migration, in words [2]: only very weak effects on tumor cell migration

COC1C=CCCCCC(=O)OC(C(C)C)C(C)=CC(C)C1O [(S)-isopropyl macrolactone (65), (S)-Isopropyl Macrolactone]
IC50 [2]: 227 µM
inhibitory activity on 4T1 tumor cell migration, in words [2]: only very weak effects on tumor cell migration

COC1C=CCCCCC(=O)OC(C(C)C(=O)CCCC2CC(=O)N(C)C(=O)C2)C(C)=CC(C)C1O (stereo not shown) [N-methyl-2,3-dihydromigrastatin (42), N-Methyl-2,3-Dihydromigrastatin]
IC50 [2]: 7 µM

CO[C@H]1/C=C/CCCCC(=O)OC/C(C)=C\[C@@H](C)[C@@H]1OC(C)=O [acetylated macrolactone (49), Acetylated Macrolactone]
inhibitory activity on 4T1 tumor cell migration, in words [2]: reduced by roughly an order of magnitude

C[C@@H]1O[C@H]2C3=C(C(=O)[C@@H]4O[C@@H]4[C@H]3O)[C@@H]1[C@H]1[C@H](C)OC=C3[C@H](O)[C@H]4OC4C(=O)[C@@]312 (stereo partly shown) [epoxyquinol, epoxyquinol A, reference compound]
IC50 [2]: 0.026 µM

CO[C@H]1/C=C/CCCCC(O)(C(F)(F)F)CC/C(C)=C\[C@@H](C)[C@@H]1O (stereo partly shown) [macrocyclic CF3-alcohol (71), Macrocyclic CF3-Alcohol]
inhibitory activity on 4T1 tumor cell migration, in words [2]: displays the same activity profile as macroketone 60

COC1C=CCCCCC(=O)NCC(C)=CC(C)C1O (stereo not shown) [macrolactam (55), Macrolactam]
lung metastasis, colonies (6-thioguanine clonogenic assay) ([5]; 10 mg/kg i.p. daily Day 7-25, Day 28): 5333±1778 colonies
inhibition of lung metastasis ([5]; listed as macrolactam): 91%
inhibition of lung metastasis ([5]; listed as macrolactam 55): ~91%
lung metastasis, colonies (6-thioguanine clonogenic assay) ([5]; 20 mg/kg i.p. daily Day 7-25, Day 28): 5675±6263 colonies

COC1C=CCCC=CC(=O)OCC(C)=CC(C)C1O (stereo not shown) [migrastatin core (45), Migrastatin Core]
Minimum effect concentration [4]: 10 µM
stability (t1/2, mouse plasma) [6]: 20 min
stability (t1/2, mouse plasma), in words ([6]; 60 min of incubation, stable = intensity of HPLC signal unchanged): hydrolyzed rapidly

CO[C@H]1/C=C/CCCCC(=O)OC/C(C)=C\[C@@H](C)C1=O [oxidized macrolactone (50), Oxidized Macrolactone]
inhibitory activity on 4T1 tumor cell migration, in words [2]: reduced by roughly an order of magnitude

N-Methyl-migrastatin
Minimum effect concentration [3]: 100 µM
Minimum effect concentration [4]: 200 µM
